Data as given in patent US20260159536A1, “AKR1C3-ACTIVATED DNA ALKYLATING AGENT, AND MEDICAL APPLICATION THEREOF” (ASCENTAWITS PHARMACEUTICALS, LTD., priority 2021, published 2026).
Where two headings read alike, the source gives them in different places.

Columns and labels:
NCI-H1792 = test: AKR1C3-dependent cytotoxicity, NSCLC cell line NCI-H1792; format: cell-based; settings: Homo sapiens
Description: (§1) The tested compound was then added. The compound was dissolved in 100% DMSO at 200 times of the desired final test concentration. When the medicament was added, the compound was further diluted to 4 times of the desired final test concentration by using the complete medium. 50 μL of aliquots of the compound with specific concentration were added to the microwells containing 150 μL of medium, and then the final medicament concentration was obtained. […] The medicament was then washed. […] After the incubation was finished, the Alamar Blue was used to analyze and quantify the living cells.

[1] = test system: HuPrime model LI6643 human liver cancer; test: In vivo pharmacodynamics, liver cancer LI6643 PDX model (Compound A, Sorafenib, AST-3424; section 4.7); set-up: species or system BALB/c nude mice; settings: for Relative tumor volume (x ± S) / T/C (%) / TGI (%) / Tumor volume (x ± S): 2 weeks off, QDx5; for Tumor volume (x ± S): in mm³
Description: Experiment Instruction: BALB/c nude mice were subcutaneously inoculated with HuPrime® model LI6643 tumor blocks to establish a subcutaneous grafted tumor model of human liver cancer. […] The efficacy was evaluated according to the relative tumor inhibition rate TGI (%), and the safety was evaluated according to the change in body weight and the death of the animals.

[2] = Liver microsome stability, rat; format: in vitro ADME; settings: for Percentage remaining after 30 minutes: Rat liver microsomes
Description: (§2) 1) Two individual experiments were performed.
(§3) All experiments were performed in duplicate.

NCIH2106 = test: AKR1C3-dependent cytotoxicity, NSCLC cell line NCIH2106; format: cell-based
Description: as §1

NCI-H23 = test: AKR1C3-dependent cytotoxicity, NSCLC cell line NCI-H23; format: cell-based; settings: Homo sapiens
Description: as §1

NCIH1755 = test: AKR1C3-dependent cytotoxicity, NSCLC cell line NCIH1755; format: cell-based; settings: Homo sapiens, NCI-H1755
Description: as §1

H460 cancer cells = test: H460 proliferation in the presence or absence of AKR1C3 inhibitor AST-3021 (Alamar Blue); format: cell-based, human; settings: for IC50: Homo sapiens, NCI-H460, H460, 2 hours exposure
Description: as §1

[3] = Liver microsome stability, monkey; format: in vitro ADME; settings: for Percentage remaining after 30 minutes: Monkey liver microsomes
Description: as §2, §3

NCI-H522 = test: AKR1C3-dependent cytotoxicity, NSCLC cell line NCI-H522; format: cell-based; settings: Homo sapiens
Description: as §1

NCI-H2228 = test: AKR1C3-dependent cytotoxicity, NSCLC cell line NCI-H2228; format: cell-based; settings: Homo sapiens
Description: as §1

[4] = test system: HuPrime model GA6201 human gastric cancer; settings: for Relative tumor volume (x ± S) / T/C (%) / TGI (%) / Tumor volume (x ± S): Day 38
Description: The test was divided into groups of the test drug Isocyclophosphamide 60 mg/kg group, the test drug AST-3424 5 mg/kg group, the test drug A compound 2.5 mg/kg and 5 mg/kg groups, and normal saline (pH 7.0-7.6) vehicle control group, a total of 5 groups, with 5 mice per group.
In the above dosing regimen, Isocyclophosphamide was designed based on the best dosing regimen with maximum safe dosage as recited in the document (Jessica D. Sun, Qian Liu, Dharmendra Ahluwalia, Damien J. Ferraro, Yan Wang, Don Jung, Mark D. Matteucci, and Charles P. Hart. Comparison of hypoxia-activated prodrug evofosfamide (TH-302) and ifosfamide in preclinical non-small cell lung cancer models [J]. Cancer Biology & Therapy, 2016, 17(4): 371-380).

NCI-H2110 = test: AKR1C3-dependent cytotoxicity, NSCLC cell line NCI-H2110; format: cell-based
Description: as §1

NCI-H1563 = test: AKR1C3-dependent cytotoxicity, NSCLC cell line NCI-H1563; format: cell-based; settings: Homo sapiens
Description: as §1

[5] = 0.5 mg/kg i.v. QDx5, 2 days off, Day 21
[6] = 2 mg/kg i.v. QDx5, 2 days off, Day 21
[7] = Compound A 1 mg/kg i.v. QDx5, 2 days off, Day 21

## O=[N+]([O-])c1ccc(C(OP(=O)(N2CC2)N2CC2)C(F)(F)F)cc1Oc1ccc(-c2ccc(F)cc2)c(F)c1 (racemic) [Compound A]
NCI-H1792
  IC50: 0.375 µM
[1]; [5]
  Relative tumor volume (x ± S): 1.84 ± 0.25
  T/C (%): 38.12%
  TGI (%): 61.88%
  Tumor volume (x ± S): 242.85 ± 50.74
[1]; 0.5 mg/kg i.v., Day 0
  Tumor volume: 124.86 mm^3
[1]; 0.5 mg/kg i.v., Day 3
  Tumor volume: 239.56 mm^3
[1]; 0.5 mg/kg i.v., Day 7
  Tumor volume: 282.74 mm^3
[1]; 0.5 mg/kg i.v., Day 10
  Tumor volume: 266.35 mm^3
[1]; 0.5 mg/kg i.v., Day 14
  Tumor volume: 231.35 mm^3
[1]; 0.5 mg/kg i.v., Day 17
  Tumor volume: 241.82 mm^3
[1]; 0.5 mg/kg i.v., Day 21
  Tumor volume: 242.85 mm^3
[1]; 0.5 mg/kg i.v., Day 24
  Tumor volume: 173.56 mm^3
[1]; 0.5 mg/kg i.v., Day 28
  Tumor volume: 188.68 mm^3
[1]; [6]
  Relative tumor volume (x ± S): 0.97 ± 0.14
  T/C (%): 20.19%
  TGI (%): 79.81%
  Tumor volume (x ± S): 116.38 ± 20.17
[1]; 2 mg/kg i.v., Day 0
  Tumor volume: 124.40 mm^3
[1]; 2 mg/kg i.v., Day 3
  Tumor volume: 182.25 mm^3
[1]; 2 mg/kg i.v., Day 7
  Tumor volume: 182.74 mm^3
[1]; 2 mg/kg i.v., Day 10
  Tumor volume: 162.65 mm^3
[1]; 2 mg/kg i.v., Day 14
  Tumor volume: 137.87 mm^3
[1]; 2 mg/kg i.v., Day 17
  Tumor volume: 117.10 mm^3
[1]; 2 mg/kg i.v., Day 21
  Tumor volume: 116.38 mm^3
[1]; 2 mg/kg i.v., Day 24
  Tumor volume: 122.78 mm^3
[1]; 2 mg/kg i.v., Day 28
  Tumor volume: 95.87 mm^3
[1]; [7]
  Relative tumor volume (x ± S): 1.44 ± 0.16
  T/C (%): 29.91%
  TGI (%): 70.09%
  Tumor volume (x ± S): 174.86 ± 17.43
[1]; Compound A 1 mg/kg i.v., Day 0
  Tumor volume: 124.32 mm^3
[1]; Compound A 1 mg/kg i.v., Day 3
  Tumor volume: 205.79 mm^3
[1]; Compound A 1 mg/kg i.v., Day 7
  Tumor volume: 246.90 mm^3
[1]; Compound A 1 mg/kg i.v., Day 10
  Tumor volume: 225.40 mm^3
[1]; Compound A 1 mg/kg i.v., Day 14
  Tumor volume: 195.33 mm^3
[1]; Compound A 1 mg/kg i.v., Day 17
  Tumor volume: 191.98 mm^3
[1]; Compound A 1 mg/kg i.v., Day 21
  Tumor volume: 174.86 mm^3
[1]; Compound A 1 mg/kg i.v., Day 24
  Tumor volume: 217.19 mm^3
[1]; Compound A 1 mg/kg i.v., Day 28
  Tumor volume: 231.64 mm^3
[2]; with the addition of NADPH
  Percentage remaining after 30 minutes: 92.10%
[2]; without the addition of NADPH
  Percentage remaining after 30 minutes: 114.62%
[2]; rat
  stability in liver microsomes: relatively unstable
NCIH2106
  IC50: 6.86 µM
NCI-H23
  IC50: 11.9 µM
NCIH1755
  IC50: 0.57 µM
H460 cancer cells; AST-3021 3 micromolar, read-out: IC50 With the addition of AST-3021
  IC50: 2.14 µM
H460 cancer cells; no AKR1C3 inhibitor, read-out: IC50 Without the addition of AST-3021
  IC50: 0.00582 µM
H460 cancer cells; IC50 with AST-3021 over IC50 without
  Fold: 367.13
[3]; with the addition of NADPH
  Percentage remaining after 30 minutes: 82.29%
[3]; without the addition of NADPH
  Percentage remaining after 30 minutes: 81.30%
[3]; monkey
  stability in liver microsomes: relatively stable
NCI-H522
  IC50: 14.1 µM
NCI-H2228
  IC50: 0.0128 µM
[4]; 2.5 mg/kg and 5 mg/kg i.v. QWx2
  relative tumor inhibition rate (TGI): more than 96%
[4]; 2.5 mg/kg i.v. QWx2
  Relative tumor volume (x ± S): 0.29 ± 0.08
  T/C (%): 3.15%
  TGI (%): 96.85%
  Tumor volume (x ± S): 28.69 ± 8.2
[4]; 2.5 mg/kg i.v., 0 day
  Tumor volume: 94.61 mm^3
[4]; 2.5 mg/kg i.v., 3 days
  Tumor volume: 120.19 mm^3
[4]; 2.5 mg/kg i.v., 7 days
  Tumor volume: 118.33 mm^3
[4]; 2.5 mg/kg i.v., 10 days
  Tumor volume: 118.65 mm^3
[4]; 2.5 mg/kg i.v., 14 days
  Tumor volume: 96.08 mm^3
[4]; 2.5 mg/kg i.v., 17 days
  Tumor volume: 76.14 mm^3
[4]; 2.5 mg/kg i.v., 21 days
  Tumor volume: 71.72 mm^3
[4]; 2.5 mg/kg i.v., 24 days
  Tumor volume: 57.94 mm^3
[4]; 2.5 mg/kg i.v., 28 days
  Tumor volume: 45.51 mm^3
[4]; 2.5 mg/kg i.v., 31 days
  Tumor volume: 43.44 mm^3
[4]; 2.5 mg/kg i.v., 35 days
  Tumor volume: 32.04 mm^3
[4]; 2.5 mg/kg i.v., 38 days
  Tumor volume: 28.69 mm^3
[4]; 2.5 mg/kg i.v., 42 days
  Tumor volume: 23.49 mm^3
[4]; 2.5 mg/kg i.v., 45 days
  Tumor volume: 25.00 mm^3
[4]; 2.5 mg/kg i.v., 49 days
  Tumor volume: 17.72 mm^3
[4]; Compound A 5 mg/kg i.v. QWx2
  Relative tumor volume (x ± S): 0.19 ± 0.08
  T/C (%): 2.04%
  TGI (%): 97.96%
  Tumor volume (x ± S): 19.97 ± 10.18
[4]; Compound A 5 mg/kg i.v., 0 day
  Tumor volume: 94.36 mm^3
[4]; Compound A 5 mg/kg i.v., 3 days
  Tumor volume: 118.42 mm^3
[4]; Compound A 5 mg/kg i.v., 7 days
  Tumor volume: 101.91 mm^3
[4]; Compound A 5 mg/kg i.v., 10 days
  Tumor volume: 97.17 mm^3
[4]; Compound A 5 mg/kg i.v., 14 days
  Tumor volume: 74.20 mm^3
[4]; Compound A 5 mg/kg i.v., 17 days
  Tumor volume: 59.77 mm^3
[4]; Compound A 5 mg/kg i.v., 21 days
  Tumor volume: 46.21 mm^3
[4]; Compound A 5 mg/kg i.v., 24 days
  Tumor volume: 44.03 mm^3
[4]; Compound A 5 mg/kg i.v., 28 days
  Tumor volume: 38.50 mm^3
[4]; Compound A 5 mg/kg i.v., 31 days
  Tumor volume: 35.92 mm^3
[4]; Compound A 5 mg/kg i.v., 35 days
  Tumor volume: 22.70 mm^3
[4]; Compound A 5 mg/kg i.v., 38 days
  Tumor volume: 19.97 mm^3
[4]; Compound A 5 mg/kg i.v., 42 days
  Tumor volume: 5.05 mm^3
[4]; Compound A 5 mg/kg i.v., 45 days
  Tumor volume: 11.14 mm^3
[4]; Compound A 5 mg/kg i.v., 49 days
  Tumor volume: 9.96 mm^3
[4]; GA6201 model, tested doses
  body weight change / toxic effects: no effect on the body weights
NCI-H2110
  IC50: 0.0678 µM
NCI-H1563
  IC50: 0.454 µM
